Results on two molecules are retold here after BindingDB's records for patent US20240208953 (Novartis, 2024).

This series has as its target Potassium voltage-gated channel subfamily H member 2 (Homo sapiens, UniProt Q12809). Nature of the series: hERG Qpatch Assay. Here is the method: hERG currents were recorded using the Qpatch automated patch clamp systems (Sophion Bioscience Inc., North Brunswick, NJ) in the whole (single) cell configuration. hERG expressing CHO-K1 cells were harvested with Detachin (Genlantis) and stored in the modified serum-free SFM-2 media (Life Technologies) at room temperature. The extracellular solution contained (in mM) NaCl (145), KCl (4), MgCl2 (1), CaCl2 (2), and HEPES (10), pH 7.4, with NaOH. The intracellular solution contained KCl (135), MgCl2 (1.75), CaCl2 (5.4), EGTA (10), K2-ATP (4), and HEPES (10), pH 7.2, with KOH. After whole cell configuration was achieved, the cell was held at +-90 mV, and a 0.1 s pulse to +-50 mV was delivered to measure the leaking current, which was subtracted from the tail current online. Then the cell was depolarized to +20 mV for 4 s (prepulse), followed by a 4 s test pulse to +-50 mV to reveal the hERG tail current. To monitor changes in the current amplitude, this voltage protocol was repeatedly applied every 20 s. Test compounds were first diluted in DMSO for six dose-response experiments and then dissolved in the extracellular solution using Freedom EVO liquid handling robotic system (Tecan, M nnedorf, Switzerland). The final DMSO concentration in samples was 0.3% v/v. Amitriptyline (Sigma) was tested as a positive control.

The term IC50 denotes the concentration at which inhibition is half-maximal. Low values mean greater potency in that assay, high ones weaker potency in that assay.

Potassium voltage-gated channel subfamily H member 2, sequence (Q12809 whole entry): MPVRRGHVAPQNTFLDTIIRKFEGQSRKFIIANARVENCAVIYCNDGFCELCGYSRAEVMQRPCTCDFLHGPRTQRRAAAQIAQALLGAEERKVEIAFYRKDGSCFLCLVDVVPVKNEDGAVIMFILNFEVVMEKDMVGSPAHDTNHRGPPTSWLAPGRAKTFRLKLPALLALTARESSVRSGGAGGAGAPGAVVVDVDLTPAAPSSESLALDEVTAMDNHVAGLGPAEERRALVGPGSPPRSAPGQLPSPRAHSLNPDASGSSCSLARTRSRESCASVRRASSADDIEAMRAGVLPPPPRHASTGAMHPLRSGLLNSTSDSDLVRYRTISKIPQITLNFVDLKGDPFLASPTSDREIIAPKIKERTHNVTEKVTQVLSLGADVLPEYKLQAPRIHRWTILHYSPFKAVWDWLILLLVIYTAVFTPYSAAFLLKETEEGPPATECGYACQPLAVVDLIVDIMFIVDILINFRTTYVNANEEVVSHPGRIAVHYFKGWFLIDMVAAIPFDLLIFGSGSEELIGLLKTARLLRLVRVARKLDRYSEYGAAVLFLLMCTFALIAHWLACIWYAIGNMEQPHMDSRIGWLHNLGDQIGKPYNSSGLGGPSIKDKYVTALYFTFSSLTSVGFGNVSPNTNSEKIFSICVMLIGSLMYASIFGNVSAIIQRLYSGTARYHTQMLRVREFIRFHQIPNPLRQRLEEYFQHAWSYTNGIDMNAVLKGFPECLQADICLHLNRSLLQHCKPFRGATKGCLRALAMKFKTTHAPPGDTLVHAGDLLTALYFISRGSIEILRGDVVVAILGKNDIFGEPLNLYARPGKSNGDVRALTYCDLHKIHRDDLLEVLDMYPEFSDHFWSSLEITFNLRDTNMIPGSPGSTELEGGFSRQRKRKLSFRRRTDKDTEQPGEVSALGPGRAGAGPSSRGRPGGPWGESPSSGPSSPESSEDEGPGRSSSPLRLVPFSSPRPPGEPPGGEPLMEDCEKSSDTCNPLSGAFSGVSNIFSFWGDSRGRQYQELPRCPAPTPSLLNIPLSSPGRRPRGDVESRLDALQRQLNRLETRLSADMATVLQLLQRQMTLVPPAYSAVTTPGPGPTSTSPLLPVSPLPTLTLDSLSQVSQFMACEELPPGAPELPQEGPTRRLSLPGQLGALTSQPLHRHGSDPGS

With `O=C1CCc2cc([C@H](O)CN3C[C@H]4C[C@H](Oc5ccccc5F)C[C@@]4(O)C3)cc(F)c2N1` [US20240208953, Example 29B], half-maximal inhibition (IC50) was put at 12.5 µM.

`O=C1Nc2c(F)cc([C@@H](O)CN3C[C@H]4C[C@H](Oc5ccccc5)C[C@@]4(O)C3)cc2CO1` [US20240208953, Example 28A] came in with a half-maximal inhibitory concentration (IC50) of 2.4 µM.
